The target of assay [1] is T1, N-terminally FLAG-tagged PARP2 (amino acids 1-583) (Homo sapiens, UniProt Q9UGN5).
T1 construct: N-terminally FLAG-tagged PARP2 (amino acids 1-583)
The assay can be described thus: PARP2 probe displacement HTRF assay. In kind it is binding. To be noted: binned Kd. On the procedure: Data analysis was performed identical as for PARP1.

For assay [2], the target named is full length N-terminally FLAG-tagged PARP1 (Homo sapiens, UniProt P09874). The assay can be described thus: PARP1 probe displacement HTRF assay. The note with it: for Selectivity: PARP1 over PARP2, ratio Kd (PARP2)/Kd (PARP1), probe displacement HTRF; for Kd: binned Kd, PARP1 probe displacement HTRF.

Like-named read-outs stand apart in the source and are kept apart here. Where only a bound is given, the exact number is not on record here.

Sequence of full length N-terminally FLAG-tagged PARP1 (P09874 whole entry): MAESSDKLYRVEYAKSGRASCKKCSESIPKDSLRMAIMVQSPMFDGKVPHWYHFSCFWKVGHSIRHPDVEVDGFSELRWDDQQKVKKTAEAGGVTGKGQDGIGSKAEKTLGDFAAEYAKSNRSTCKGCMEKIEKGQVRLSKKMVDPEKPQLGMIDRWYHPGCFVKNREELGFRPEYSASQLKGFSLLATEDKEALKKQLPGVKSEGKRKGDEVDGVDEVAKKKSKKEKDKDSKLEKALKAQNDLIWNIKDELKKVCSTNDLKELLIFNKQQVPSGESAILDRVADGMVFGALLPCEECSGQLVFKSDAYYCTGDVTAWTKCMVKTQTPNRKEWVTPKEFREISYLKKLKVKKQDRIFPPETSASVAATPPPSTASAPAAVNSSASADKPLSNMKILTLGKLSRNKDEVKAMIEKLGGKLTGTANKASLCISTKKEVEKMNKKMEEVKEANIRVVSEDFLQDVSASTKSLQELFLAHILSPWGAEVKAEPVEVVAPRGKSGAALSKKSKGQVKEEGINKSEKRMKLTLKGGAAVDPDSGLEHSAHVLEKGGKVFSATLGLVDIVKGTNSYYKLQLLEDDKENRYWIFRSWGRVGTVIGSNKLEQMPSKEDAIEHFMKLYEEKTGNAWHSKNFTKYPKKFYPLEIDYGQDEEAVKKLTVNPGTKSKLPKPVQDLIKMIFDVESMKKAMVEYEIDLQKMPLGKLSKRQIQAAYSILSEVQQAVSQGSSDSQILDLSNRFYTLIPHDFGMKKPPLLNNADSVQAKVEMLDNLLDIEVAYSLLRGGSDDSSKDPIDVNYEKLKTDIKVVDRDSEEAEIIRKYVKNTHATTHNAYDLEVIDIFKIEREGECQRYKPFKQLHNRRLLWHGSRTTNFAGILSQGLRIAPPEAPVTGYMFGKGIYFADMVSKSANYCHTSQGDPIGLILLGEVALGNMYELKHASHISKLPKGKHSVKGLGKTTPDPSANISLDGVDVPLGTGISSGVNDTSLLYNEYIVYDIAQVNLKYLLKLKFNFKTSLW
T1 sequence (Q9UGN5 whole entry, the tested form may be a part): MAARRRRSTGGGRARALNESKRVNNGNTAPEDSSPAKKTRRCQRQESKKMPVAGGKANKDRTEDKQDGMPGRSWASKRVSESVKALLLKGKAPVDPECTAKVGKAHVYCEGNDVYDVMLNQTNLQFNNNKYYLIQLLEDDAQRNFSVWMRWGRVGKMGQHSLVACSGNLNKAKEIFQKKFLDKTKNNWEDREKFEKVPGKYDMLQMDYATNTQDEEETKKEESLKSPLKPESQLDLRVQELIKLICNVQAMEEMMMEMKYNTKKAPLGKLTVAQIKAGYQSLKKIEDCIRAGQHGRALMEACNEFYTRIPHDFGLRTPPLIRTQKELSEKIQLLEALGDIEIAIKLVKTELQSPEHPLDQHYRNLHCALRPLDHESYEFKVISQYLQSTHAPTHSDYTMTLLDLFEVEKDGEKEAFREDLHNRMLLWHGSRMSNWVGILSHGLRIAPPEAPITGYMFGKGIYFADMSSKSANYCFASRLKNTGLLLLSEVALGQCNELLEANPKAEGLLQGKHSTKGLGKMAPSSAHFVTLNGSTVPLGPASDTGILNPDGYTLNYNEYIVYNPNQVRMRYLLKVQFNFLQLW

For `CNC(=O)c1ccc(N2CCC(N3CCCC(c4nc5ccc(F)cc5c(=O)[nH]4)C3)CC2)cn1` (single isomer, unassigned) [Compound 78b], the results for the Kd in assay [1] (PARP2 probe displacement HTRF) and in assay [2] (read-out: PARP1 HTRF) were 100 to 1000 nM and 10 to 100 nM, respectively. Moreover, the Selectivity result in assay [2] is recorded as “+ (+ indicates a value of 10 to less than 50)”.
For the compound `O=c1[nH]c(C2CCN(C3CCN(c4ccc(-c5ncc[nH]5)cc4)CC3)C2)nc2ccccc12` (single isomer, unassigned) [Compound 76b], the Kd was below 10 nM in assay [1] (PARP2 probe displacement HTRF) and 10 to 100 nM in assay [2] (read-out: PARP1 HTRF). For the same compound, the Selectivity entry in assay [2] was “− (− indicates a value of less than 10)”.
With `CNC(=O)c1ccc(N2CCC(N3CCCC(c4nc5cccc(F)c5c(=O)[nH]4)C3)CC2)cn1` (single isomer, unassigned) [Compound 88a], the Kd in assay [1] (PARP2 probe displacement HTRF) and in assay [2] (read-out: PARP1 HTRF) was 100 to 1000 nM throughout. Besides, in assay [2], the Selectivity entry is “− (− indicates a value of less than 10)”.
With `CNC(=O)c1ccc(N2CCC(N3CCC(c4nc5cccc(Cl)c5c(=O)[nH]4)C3)CC2)cn1` (single isomer, unassigned) [Compound 85a], the Kd fell in the range of 100 to 1000 nM in assay [1] (PARP2 probe displacement HTRF) and 10 to 100 nM in assay [2] (read-out: PARP1 HTRF). Also, the Selectivity result in assay [2] was “+ (+ indicates a value of 10 to less than 50)”.
`CNC(=O)c1ccc(N2CCC(N3CCCC(c4nc5cccnc5c(=O)[nH]4)C3)CC2)cn1` (single isomer, unassigned) [Compound 89a]: the Kd in assay [1] (PARP2 probe displacement HTRF) and in assay [2] (read-out: PARP1 HTRF) was above 10000 nM throughout. The Selectivity result in assay [2] is “− (− indicates a value of less than 10)”.
In the case of `O=c1[nH]c(C2CCN(C3CCN(c4ccc(-c5ncc[nH]5)cc4)CC3)C2)nc2ccccc12` (single isomer, unassigned) [Compound 76a], the results for the Kd in assay [1] (PARP2 probe displacement HTRF) and in assay [2] (read-out: PARP1 HTRF) were 100 to 1000 nM and 10 to 100 nM, respectively. For the same compound, the Selectivity result in assay [2] is recorded as “− (− indicates a value of less than 10)”.
Taken in the same sequence, the figures for `N#Cc1ccc(N2CCC(N3CCCC(c4nc5ccccc5c(=O)[nH]4)C3)CC2)cc1` (single isomer, unassigned) [Compound 79a] were 100 to 1000 nM, 10 to 100 nM and “+ (+ indicates a value of 10 to less than 50)”.
In assay [1] (probe displacement HTRF), `CCN1CCCc2c1nc(C13CC(C1)N(C1CCN(c4ccc(C(=O)NC)nc4)CC1)C3)[nH]c2=O` [Compound 383] registered a Kd of 100 to 1000 nM.
With `CNC(=O)c1ccc(N2CCC(N3CCCC(c4nc5cccc(F)c5c(=O)[nH]4)C3)CC2)cn1` (single isomer, unassigned) [Compound 88b], the Kd is 1000 to 10000 nM in assay [1] (PARP2 probe displacement HTRF) and below 10 nM in assay [2] (read-out: PARP1 HTRF). In assay [2], the Selectivity entry is on record as “+++ (+++ indicate a value of at least 100)”.
With `CNC(=O)c1ccc(N2CCC(N3CCCC(c4nc5ccccc5c(=O)[nH]4)C3)CC2)nc1` (single isomer, unassigned) [Compound 83b], the Kd in assay [1] (PARP2 probe displacement HTRF) is above 10000 nM; in assay [2] (read-out: PARP1 HTRF), 100 to 1000 nM. For the same compound, the Selectivity result in assay [2] is recorded as “+ (+ indicates a value of 10 to less than 50)”.
For the compound `CNC(=O)c1ccc(N2CCC(N3CCC(c4nc5ccncc5c(=O)[nH]4)C3)CC2)cn1` (single isomer, unassigned) [Compound 81b], the Kd was above 10000 nM in assay [1] (PARP2 probe displacement HTRF) and 10 to 100 nM in assay [2] (read-out: PARP1 HTRF). In assay [2], the Selectivity result is listed as “+++ (+++ indicate a value of at least 100)”.
Taken in the same sequence, the figures for `CNC(=O)c1ccc(N2CCC(N3CCC(c4nc5ccccc5c(=O)[nH]4)C3)CC2)cc1` (single isomer, unassigned) [Compound 80b] were 100 to 1000 nM, 100 to 1000 nM and “− (− indicates a value of less than 10)”.
The compound `CNC(=O)c1ccc(N2CCC(N3CCC(c4cc5c(F)cncc5c(=O)[nH]4)C3)CC2)c(F)n1` (single isomer, unassigned) [Compound 343b, 6-fluoro-5-(4-(3-(5-fluoro-1-oxo-1,2-dihydro-2,7-naphthyridin-3-yl)pyrrolidin-1-yl)piperidin-1-yl)-N-methylpicolinamide] showed a Kd in assay [1] (probe displacement HTRF) of 1000 to 10000 nM.
On to `CNC(=O)c1ccc(N2CCC(N3CCC(c4nc5onc(C(F)(F)F)c5c(=O)[nH]4)C3)CC2)cn1` (racemic) [Compound 176rac], for which the Kd is above 10000 nM in assay [1] (PARP2 probe displacement HTRF) and 100 to 1000 nM in assay [2] (read-out: PARP1 HTRF). The Selectivity result in assay [2] is reported as “+ (+ indicates a value of 10 to less than 50)”.
Take `CNC(=O)c1ccc(N2CCC(N3CCC(c4nc5cccnc5c(=O)[nH]4)C3)CC2)cn1` (single isomer, unassigned) [Compound 77b]: the Kd in assay [1] (PARP2 probe displacement HTRF) is above 10000 nM; in assay [2] (read-out: PARP1 HTRF), 10 to 100 nM. The Selectivity result in assay [2] is “+++ (+++ indicate a value of at least 100)”.
Taken in the same sequence, the figures for `CNC(=O)c1ccc(N2CCC(N3CCCC(c4nc5ccc(F)cc5c(=O)[nH]4)C3)CC2)cn1` (single isomer, unassigned) [Compound 78a] were 1000 to 10000 nM, below 10 nM and “+++ (+++ indicate a value of at least 100)”.
With `CNC(=O)c1ccc(N2CCC(N3CCC(c4nc5cnccc5c(=O)[nH]4)C3)CC2)cn1` (single isomer, unassigned) [Compound 84b], the Kd in assay [1] (PARP2 probe displacement HTRF) was above 10000 nM; in assay [2] (read-out: PARP1 HTRF) it was 10 to 100 nM. In addition, the Selectivity entry in assay [2] is reported as “++ (++ indicates a value of 50 to less than 100)”.
Taken in the same sequence, the figures for `CNC(=O)c1ccc(N2CCC(N3CCCC(c4nc5ccccc5c(=O)[nH]4)C3)CC2)cc1` (single isomer, unassigned) [Compound 82a] were 100 to 1000 nM, 10 to 100 nM and “− (− indicates a value of less than 10)”.
As for `CNC(=O)c1ccc(N2CCC(N3CCC(c4nc5cc(Cl)ccc5c(=O)[nH]4)C3)CC2)cn1` (single isomer, unassigned) [Compound 87a], the Kd was 1000 to 10000 nM in assay [1] (PARP2 probe displacement HTRF) and 100 to 1000 nM in assay [2] (read-out: PARP1 HTRF). Also, the Selectivity entry in assay [2] is on record as “+ (+ indicates a value of 10 to less than 50)”.
For the compound `CNC(=O)c1ccc(N2CCC(N3CCC(c4nc5c(C(F)(F)F)cccc5c(=O)[nH]4)C3)CC2)cn1` (single isomer, unassigned) [Compound 178a], the Kd in assay [1] (PARP2 probe displacement HTRF) was in the range of 1000 to 10000 nM; in assay [2] (read-out: PARP1 HTRF), 100 to 1000 nM. Moreover, the Selectivity result in assay [2] is listed as “− (− indicates a value of less than 10)”.
For `CNC(=O)c1ccc(N2CCC(N3CCC4CC4(c4nc5ccccc5c(=O)[nH]4)C3)CC2)cn1` (single isomer, unassigned) [Compound 90a], the Kd in assay [1] (PARP2 probe displacement HTRF) is above 10000 nM; in assay [2] (read-out: PARP1 HTRF) it was 100 to 1000 nM. The Selectivity entry in assay [2] is “+ (+ indicates a value of 10 to less than 50)”.
Taken in the same sequence, the figures for `CNC(=O)c1ccc(N2CCC(N3CCC(c4nc5cccnc5c(=O)[nH]4)C3)CC2)cn1` (single isomer, unassigned) [Compound 77a] were above 10000 nM, 100 to 1000 nM and “+ (+ indicates a value of 10 to less than 50)”.
Consider `CNC(=O)c1ccc(N2CCC(N3CCCC(c4nc5ccccc5c(=O)[nH]4)C3)CC2)nc1` (single isomer, unassigned) [Compound 83a], for which the Kd lay within 1000 to 10000 nM in assay [1] (PARP2 probe displacement HTRF) and 100 to 1000 nM in assay [2] (read-out: PARP1 HTRF). In addition, the Selectivity result in assay [2] is “− (− indicates a value of less than 10)”.
In the case of `CNC(=O)c1ccc(N2CCC(N3CCC(c4nc5ccccc5c(=O)[nH]4)C3)CC2)cc1` (single isomer, unassigned) [Compound 80a], the values for the Kd in assay [1] (PARP2 probe displacement HTRF) and in assay [2] (read-out: PARP1 HTRF) were 100 to 1000 nM and below 10 nM, respectively. Also, the Selectivity entry in assay [2] is reported as “+++ (+++ indicate a value of at least 100)”.
For `CNC(=O)c1ccc(N2CCC(N3CCCC(c4nc5ccccc5c(=O)[nH]4)C3)CC2)cc1` (single isomer, unassigned) [Compound 82b], the Kd in assay [1] (PARP2 probe displacement HTRF) was above 10000 nM; in assay [2] (read-out: PARP1 HTRF), 10 to 100 nM. Besides, in assay [2], the Selectivity result is “++ (++ indicates a value of 50 to less than 100)”.
For the compound `CNC(=O)c1ccc(N2CCC(N3CCCC(c4nc5cccnc5c(=O)[nH]4)C3)CC2)cn1` (single isomer, unassigned) [Compound 89b], the figures for the Kd in assay [1] (PARP2 probe displacement HTRF) and in assay [2] (read-out: PARP1 HTRF) were above 10000 nM and 100 to 1000 nM, respectively. For the same compound, in assay [2], the Selectivity result is reported as “+ (+ indicates a value of 10 to less than 50)”.
Taken in the same sequence, the figures for `N#Cc1ccc(N2CCC(N3CCCC(c4nc5ccccc5c(=O)[nH]4)C3)CC2)cc1` (single isomer, unassigned) [Compound 79b] were 100 to 1000 nM, 10 to 100 nM and “+ (+ indicates a value of 10 to less than 50)”.
Taken in the same sequence, the figures for `CNC(=O)c1ccc(N2CCC(N3CCC4CC4(c4nc5ccccc5c(=O)[nH]4)C3)CC2)cn1` (single isomer, unassigned) [Compound 90b] were 1000 to 10000 nM, 100 to 1000 nM and “+ (+ indicates a value of 10 to less than 50)”.
For the compound `CNC(=O)c1ccc(N2CCC(CN3CCC(c4ncc(C(F)(F)F)c(=O)[nH]4)CC3)CC2)cn1` [Compound 75], the figures for the Kd in assay [1] (PARP2 probe displacement HTRF) and in assay [2] (PARP1 HTRF) were above 10000 nM and 1000 to 10000 nM, respectively. Also, in assay [2], the Selectivity entry is reported as “− (− indicates a value of less than 10)”.
For the compound `CNC(=O)c1ccc(N2CCC(N3CCC(c4cc5ccc(C(F)(F)F)cc5c(=O)[nH]4)C3)CC2)cn1` (racemic) [Compound 177rac], the Kd in assay [1] (PARP2 probe displacement HTRF) is above 10000 nM; in assay [2] (read-out: PARP1 HTRF), below 10 nM. Further, in assay [2], the Selectivity entry is reported as “+++ (+++ indicate a value of at least 100)”.
`CNC(=O)c1ccc(N2CCC(N3CCC(c4nc5ccncc5c(=O)[nH]4)C3)CC2)cn1` (single isomer, unassigned) [Compound 81a]: the results for the Kd in assay [1] (PARP2 probe displacement HTRF) and in assay [2] (read-out: PARP1 HTRF) were above 10000 nM and 100 to 1000 nM, respectively. In addition, the Selectivity entry in assay [2] is “+ (+ indicates a value of 10 to less than 50)”.
As to `CNC(=O)c1ccc(N2CCC(N3CCC(c4nc5c(C(F)(F)F)cccc5c(=O)[nH]4)C3)CC2)cn1` (single isomer, unassigned) [Compound 178b], the Kd in assay [1] (PARP2 probe displacement HTRF) is 1000 to 10000 nM; in assay [2] (read-out: PARP1 HTRF), below 10 nM. Further, the Selectivity result in assay [2] was “+++ (+++ indicate a value of at least 100)”.

The values above are taken from patent US20250152585A1, “PHARMACEUTICAL COMPOUND” (Duke Street Bio Limited, priority 2022, published 2025).
